In EP1147080B1 (Wyeth Holdings Corporation, priority 1999, dated 2000):

Tests used:
MMP-13 = MMP-13 (Homo sapiens, UniProt P45452); test: MMP-13 inhibition (thiopeptide or fluorescent peptide substrate); type: biochemical; conditions: read-out: MMP13; for inhibition at 1 µM: % at 1 um (specified in cell); for inhibition at 10 µM: % @ 10µM per footnote a
Source text: Alternatively, a fluorescent peptide substrate is used.

[1] = target: TNF-α converting enzyme (TACE) (Homo sapiens, UniProt P78536); test: Test procedure for measuring TACE inhibition (fluorescent peptidyl substrate); type: biochemical; conditions: for IC50: second table
Chain of TNF-α converting enzyme (TACE) (P78536 215-824): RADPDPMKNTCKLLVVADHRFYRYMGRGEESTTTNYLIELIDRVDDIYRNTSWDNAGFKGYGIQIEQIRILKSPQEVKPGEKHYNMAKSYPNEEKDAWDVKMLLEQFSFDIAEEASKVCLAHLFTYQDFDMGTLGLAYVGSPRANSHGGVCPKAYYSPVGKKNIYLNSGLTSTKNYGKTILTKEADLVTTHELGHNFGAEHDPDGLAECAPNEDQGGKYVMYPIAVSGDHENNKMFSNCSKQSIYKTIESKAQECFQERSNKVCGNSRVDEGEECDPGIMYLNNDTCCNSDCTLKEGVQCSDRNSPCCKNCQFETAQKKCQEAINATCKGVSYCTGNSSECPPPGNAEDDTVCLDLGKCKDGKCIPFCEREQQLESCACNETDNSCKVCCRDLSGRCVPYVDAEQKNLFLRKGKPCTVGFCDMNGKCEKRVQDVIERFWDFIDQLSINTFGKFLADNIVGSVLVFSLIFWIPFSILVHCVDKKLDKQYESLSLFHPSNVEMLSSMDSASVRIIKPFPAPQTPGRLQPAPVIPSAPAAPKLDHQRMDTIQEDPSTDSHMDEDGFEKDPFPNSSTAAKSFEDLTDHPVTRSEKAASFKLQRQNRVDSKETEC

THP-1 cells = test: Human monocytic THP-1 cell differentiation assay for soluble proteins (THP soluble protein assay), LPS-stimulated, TNF-α ELISA; type: cell-based; conditions: Homo sapiens, THP-1; at 3 uM; percent change from vehicle positive control; read-out: TNFalpha at 3 uM) THP (percent change)
Source text: Mitogenic stimulation of THP-1 cells cause differentiation into macrophage like cells with concomitant secretion of tumor necrosis factor (TNF-a) and TNF receptor (TNF-R p75/80 and TNF-R p55/60) and Interleukin-8 (IL-8), among other proteins. In addition, non-stimulated THP-1 cells shed both the p75/80 and the p55/60 receptors over time. The release of membrane bound TNF-a and possibly TNF-R p75/80 and TNF-R p55/60, but not IL-8, is mediated by an enzyme called TNF-α converting enzyme or TACE.
THP-1 cells (from ATCC) are a human monocytic cell line which were obtained from the peripheral blood of a person with acute monocytic leukemia. They can be grown in culture and differentiated into macrophage like cells by stimulation with mitogens.
Each vial of cells are cultured for about two weeks prior to being used for an assay and then are used for only 4 to 6 weeks to screen compounds.
Cell exposure to DMSO was limited to 0.1 % final concentration. […] Compounds can be evaluated for their effect on basal (non-stimulated) shedding of the receptors by replacing the LPS with […] of THP-1 media. Plates are placed into an incubator set at 5% CO2 and at 37°C. After 4 hours of incubation, […] of tissue culture supernatant (TCS) is removed for use in an TNF-α ELISA. Following 24 hours of incubation, […] of TCS is removed and used for analysis in TNF-R p75/80, TNF-R p55/60 and IL-8 ELISAs.
In addition, at the 24 hours timepoint, and the cells for each treatment group are collected by resuspension in 500 µl/well of THP-1 media and transferred into a FACS tube. […] The samples are run on a Becton Dickinson FaxCaliber FLOW cytometry machine and the amount of dye taken up by each cell is measured in the high red wavelength (FL3). Only cells with compromised membranes (dead or dying) can take up PI. The percent of live cells is calculated by the number of cells not stained with PI, divided by the total number of cells in the sample. The viability values calculated for the drug treated groups were compared to the viability value calculated for the vehicle treated mitogen stimulated group ("vehicle positive control") to determine the "percent change from control". This "percent change from control" value is an indicator of drug toxicity.
The quantity of soluble TNF-α, TNF-R p75/80 and TNF-R p55/60 and IL-8 in the TCS of the THP-1 cell cultures are obtained with commercially available ELISAs from R&D Systems, by extrapolation from a standard curve generated with kit standards. The number of cells that either take up or exclude PI are measured by the FLOW cytometry machine and visualized by histograms using commercially available Cytologic software for each treatment group including all controls.
Biological variability in the magnitude of the response of THP-1 cell cultures requires that experiments be compared on the basis of percent change from "vehicle positive control" for each drug concentration. Percent change in each soluble protein evaluated from the "vehicle positive control" was calculated for each compound concentration with the following formula: % Change =(pg/ml (compound) - pg/ml (veh pos control))/(pg/ml (veh pos control) - pg/ml (veh neg control))x 100 [formula]
For the soluble protein (TNF-a, p75/80, p55/60, IL-8) studies under stimulated conditions, the mean pg/ml of duplicate wells were determined and the results expressed as percent change from "vehicle positive control". For the soluble protein (p75/80 and p55/60 receptors) studies under non-stimulated conditions, the mean pg/ml of duplicate wells were determined and the results expressed as percent change from […] utilizing the following formula: % Change =(pg/ml (compound neg control) - pg/ml (veh neg control))/(pg/ml (veh neg control))X 100 [formula]
IC50 values for each compound are calculated by non-linear regression analysis using customized software utilizing the JUMP statistical package.

MMP-1 = target: T1, MMP-1 (Homo sapiens, UniProt P03956); test: MMP-1 inhibition (thiopeptide or fluorescent peptide substrate); conditions: read-out: MMP1
T1 sequence (P03956 100-469): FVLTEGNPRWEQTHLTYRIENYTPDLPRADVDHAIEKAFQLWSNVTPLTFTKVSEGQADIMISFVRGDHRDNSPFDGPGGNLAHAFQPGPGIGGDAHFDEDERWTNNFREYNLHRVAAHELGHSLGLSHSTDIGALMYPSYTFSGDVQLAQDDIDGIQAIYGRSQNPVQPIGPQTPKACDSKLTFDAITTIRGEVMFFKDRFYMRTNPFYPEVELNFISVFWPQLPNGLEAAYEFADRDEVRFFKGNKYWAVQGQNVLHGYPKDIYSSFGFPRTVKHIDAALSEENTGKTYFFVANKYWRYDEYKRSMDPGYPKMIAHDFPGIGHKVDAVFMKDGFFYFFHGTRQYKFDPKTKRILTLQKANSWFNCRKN

inhibition at 1 µM (MMP-13) [%] | IC50 ([1]; IC50 (nM) per footnote a) [nM] | inhibition at 10 µM (MMP-1) [%] | inhibition at 10 µM (MMP-13) [%] | inhibition at 10 µM ([1]; % @ 10µM per footnote a, read-out: TACE IC50) [%] | IC50 [1] [nM] | SMILES | inhibition at 3 µM (THP-1 cells) [%]
33.6 | 495 | 5.6 |  |  |  | CC#CCOc1ccc(S(=O)(=O)C(C(=O)NO)c2ccc3ccccc3c2)cc1 (stereo not shown) [Example 116, 2-{[4-(2-butynyloxy)phenyl]sulfonyl}-2-(2-naphthyl)-N-hydroxyacetamide] | 7
 | 423 | 8 | 34 |  |  | CC#CCOc1ccc(S(=O)(=O)C(C(=O)NO)c2cccc3ccccc23)cc1 (stereo not shown) [Example 94, 2-{[4-(2-Butynyloxy)phenyl]sulfonyl}-N-hydroxy-2-(1-naphthyl)acetamide] | -11
 |  | 3.5 | 30.5 | 40.9 |  | CC#CCOc1ccc(SC(C(=O)NO)c2ccc3ccccc3c2)cc1 (stereo not shown) [Example 114, 2-{[4-(2-Butynyloxy)phenyl]sulfanyl}-2-(2-naphthyl)-N-hydroxyacetamide] | 12
23 |  | 10 |  |  |  | CC#CCOc1ccc(S(=O)(=O)C(C(=O)NO)c2cccc(Cl)c2)cc1 (stereo not shown) [Example 84, 2-{[4-(2-butynyloxy)phenyl]sulfonyl}-2-(3-chlorophenyl)-N-hydroxyacetamide] | -7
 | 931 | 8 | 25 |  |  | CC#CCOc1ccc(SC(C(=O)NO)c2cccc3ccccc23)cc1 (stereo not shown) [Example 92, 2-{[4-(2-Butynyloxy)phenyl]sulfanyl}-N-hydroxy-2-(1-naphthyl)acetamide] | -7
 |  | 0 | 33.6 |  | 1100 | CC#CCOc1ccc([S+]([O-])C(C(=O)NO)c2ccccc2OC)cc1 (stereo not shown) [Example 99, 2-(2-methoxyphenyl)-2-{[4-(2-butynyloxy)phenyl]sulfinyl}-N-hydroxyacetamide] | 1
 | 263 | 9 | 50 |  |  | CC#CCOc1ccc(S(=O)(=O)C(C(=O)NO)C2CCN(Cc3ccc(OC)cc3)CC2)cc1 (stereo not shown) [Example 119, 2-{[4-(2-butynyloxy)phenyl]sulfonyl}-N-hydroxy-2-[1-(4-methoxybenzyl)-4-piperidinyl] acetamide] | 30
 | 391 | 6.8 | 30.5 |  |  | CC#CCOc1ccc(SC(C(=O)NO)c2ccc(Br)cc2)cc1 (stereo not shown) [Example 85, 2-(4-bromophenyl)-2-{[4-(2-butynyloxy)phenyl]sulfanyl}-N-hydroxyacetamide] | -10
 | 82 | 26 | 71 |  |  | CC#CCOc1ccc(S(=O)(=O)C(C(=O)NO)c2ccc(OCC)cc2)cc1 (stereo not shown) [Example 102] | 10
 | 60 | 24 | 51 |  |  | CC#CCOc1ccc([S+]([O-])[C@H](C(=O)NO)c2ccc(Br)cc2)cc1 (single isomer, unassigned) [Example 86] | -2
16 |  | 7 |  |  |  | CC#CCOc1ccc([S+]([O-])[C@@H](C(=O)NO)c2ccc(-c3cccs3)cc2)cc1 (stereo partly drawn) [Example 90, (2R)-2-{[4-(2-butynyloxy)phenyl]sulfinyl}-N-hydroxy-2-[4-(2-thienyl)phenyl] ethanamide] | 1

SMILES | inhibition at 1 µM (MMP-13) [%] | IC50 ([1]; IC50 (nM) per footnote a) [nM] | inhibition at 10 µM (MMP-1) [%] | inhibition at 10 µM (MMP-13) [%] | inhibition at 10 µM ([1]; % @ 10µM per footnote a, read-out: TACE IC50) [%] | IC50 [1] [nM] | inhibition at 3 µM (THP-1 cells) [%]
CC#CCOc1ccc(S(=O)(=O)C(C(=O)NO)C2CCNCC2)cc1 (stereo not shown) [Example 118, 2-{[4-(2-butynyloxy)phenyl]sulfonyl}-N-hydroxy-2-(4-piperidinyl) acetamide] |  | 299 | 23.8 | 69.5 |  |  | 24
CC#CCOc1ccc(S(=O)(=O)C(C(=O)NO)C2CCOCC2)cc1 (stereo not shown) [Example 122, 2-{[4-(2-Butynyloxy)phenyl]sulfonyl}-N-hydroxy-2-tetrahydro-2H-pyran-4-yl-acetamide] |  |  | 9 | 57 |  |  | 36
